The values that follow come from PubChem BioAssay (NCI).

Test systems include SK-MEL-28 melanoma; HT29 colon; SF-539 CNS; HCT-15 colon; CAKI-1 renal; HL-60(TB) leukemia; KM12 colon; U251 CNS; HS 578T breast; IGROV1 ovarian.
Assay in all cases: growth of human tumour cells (NCI), 48 h

Values joined by “and” are separate entries in the source; they are usually repeats but may differ in a detail not shown here. Equal entries are not always repeated.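 Assay format: 96-well plates, 48-hour exposure. Abbreviation: GI50, concentration required for 50% inhibition of growth. TGI: concentration producing complete growth inhibition.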

For `COc1ccc(-c2cc(-c3ccc(Cl)cc3)c(C#N)c(=O)n2CCCCCC(=O)Nc2ccccc2N)cc1`, the GI50 in the assay on SK-MEL-28 melanoma was 3.88 µM; with HT29 colon it was 3.56 µM; with SF-539 CNS, 9.29 µM; in the assay on HCT-15 colon it was 2.78 µM; in the assay on CAKI-1 renal, 2.04 µM; with HL-60(TB) leukemia, 2.6 µM. In addition, the GI50 with KM12 colon is 4.58 µM; in the assay with U251 CNS, 6.19 µM; in the assay with HS 578T breast it was 3.06 µM; with IGROV1 ovarian it was 4.22 µM. Besides, the TGI in the assay with SK-MEL-28 melanoma is 97.8 µM; with HT29 colon, over 100 µM; in the assay on SF-539 CNS, over 100 µM; in the assay on HCT-15 colon, 10.4 µM; with CAKI-1 renal it was 5.97 µM; in the assay with HL-60(TB) leukemia it was 7.12 µM. The TGI is 27 µM in the assay on KM12 colon, over 100 µM in the assay with U251 CNS, 29.7 µM in the assay with HS 578T breast and over 100 µM with IGROV1 ovarian.
Consider `COc1cc2nc(NC3CCC3)nc(NC3CCN(C(C)C)CC3)c2cc1OC`, for which the GI50 with SK-MEL-28 melanoma is 1.94 µM; in the assay with HT29 colon, 1.75 µM; in the assay with SF-539 CNS, 1.81 µM; in the assay on HCT-15 colon, 2.16 µM; with CAKI-1 renal, 1.59 µM; with HL-60(TB) leukemia it was 2.06 µM. For the same compound, the GI50 with KM12 colon was 4.01 µM; in the assay on U251 CNS, 1.95 µM; in the assay with HS 578T breast, 2.08 µM; with IGROV1 ovarian, 7.08 µM. Further, the TGI in the assay on SK-MEL-28 melanoma was determined as 3.66 µM; in the assay on HT29 colon it was 3.97 µM; in the assay on SF-539 CNS, 3.36 µM; in the assay with HCT-15 colon, 5.15 µM; in the assay on CAKI-1 renal it was 3.17 µM; in the assay on HL-60(TB) leukemia it was 4.05 µM. For the same compound, the TGI in the assay with KM12 colon was 14.7 µM; in the assay on U251 CNS it was 4.52 µM; in the assay on HS 578T breast it was 5.45 µM; in the assay on IGROV1 ovarian, 24 µM.
`CC(=O)O[C@@H]1[C@H]2O[C@H]2[C@H]2O[C@@]2(COC(=O)c2ccccc2)[C@H]1OC(C)=O`: the TGI in the assay on SK-MEL-28 melanoma, with HT29 colon, with SF-539 CNS, in the assay with HCT-15 colon, in the assay on CAKI-1 renal and in the assay on HL-60(TB) leukemia was over 100 µM throughout. For the same compound, the TGI with KM12 colon, in the assay with U251 CNS, in the assay on HS 578T breast and in the assay on IGROV1 ovarian was over 100 µM throughout.
With `CCOc1ccc(-c2nc3ccc(-c4nc5ccc(N6CCN(C)CC6)cc5[nH]4)cc3[nH]2)cc1OCC`, the GI50 in the assay with SK-MEL-28 melanoma was 0.701 µM; in the assay with HT29 colon, 2.6 µM; in the assay with SF-539 CNS it was 1.2 µM; in the assay with HCT-15 colon, 15 µM; with CAKI-1 renal it was 2.71 µM; with HL-60(TB) leukemia, 1.16 µM. In addition, the GI50 in the assay on KM12 colon is 3.88 µM; with U251 CNS, 1.32 µM; in the assay on HS 578T breast, 1.74 µM; with IGROV1 ovarian it was 1.94 µM. Further, the TGI with SK-MEL-28 melanoma was 2.18 µM; in the assay with HT29 colon, 12.1 µM; in the assay on SF-539 CNS it was 2.71 µM; in the assay on HCT-15 colon, over 100 µM; in the assay on CAKI-1 renal it was 17.6 µM; with HL-60(TB) leukemia it was 4.7 µM. In addition, the TGI with KM12 colon worked out at 15.8 µM; in the assay on U251 CNS, 6.71 µM; with HS 578T breast, 5.46 µM; in the assay on IGROV1 ovarian, 6.2 µM.
Consider `O=C(N=Nc1c(O)[nH]c2c(Cl)cc(Cl)cc12)C(=O)Nc1cccc(C(F)(F)F)c1`, for which the TGI in the assay on SK-MEL-28 melanoma, with HT29 colon, with SF-539 CNS, in the assay on HCT-15 colon, in the assay on CAKI-1 renal and in the assay with HL-60(TB) leukemia was over 100 µM throughout. Also, the TGI with KM12 colon, in the assay on U251 CNS, in the assay on HS 578T breast and in the assay on IGROV1 ovarian was over 100 µM throughout.
With `CCN(CC)CCN1C(=O)c2cccc3cc(N)cc(c23)C1=O`, the TGI was 36.1 µM with SK-MEL-28 melanoma; 18.1 µM in the assay with HT29 colon; 20.4 µM with SF-539 CNS; over 100 µM in the assay with HCT-15 colon; over 100 µM in the assay on CAKI-1 renal; 50.5 µM in the assay with HL-60(TB) leukemia. Further, the TGI is 66.9 µM in the assay with KM12 colon, over 100 µM with U251 CNS, over 100 µM in the assay on HS 578T breast and over 100 µM in the assay on IGROV1 ovarian.
For the compound `COc1cc(F)c(F)c(F)c1C(=O)c1cnc(NC2CCN(S(C)(=O)=O)CC2)nc1N`, the GI50 with SK-MEL-28 melanoma was 2.24 µM; in the assay with HT29 colon, 1.07 µM; in the assay with SF-539 CNS it was 1.24 µM; in the assay with HCT-15 colon, 1.32 µM; in the assay on CAKI-1 renal, 0.843 µM; in the assay with HL-60(TB) leukemia, 0.244 µM. In addition, the GI50 in the assay with KM12 colon is 0.958 µM; in the assay with U251 CNS it was 0.78 µM; in the assay with HS 578T breast it was 3.17 µM; in the assay on IGROV1 ovarian it was 1.12 µM. Moreover, the TGI is 18.4 µM with SK-MEL-28 melanoma; 15.2 µM in the assay with HT29 colon; 6.06 µM with SF-539 CNS; over 25 µM in the assay on HCT-15 colon; 10.8 µM with CAKI-1 renal; 6.31 µM with HL-60(TB) leukemia. Also, the TGI in the assay on KM12 colon is over 14.4 µM; in the assay with U251 CNS, over 25 µM; with HS 578T breast it was 18.1 µM; in the assay on IGROV1 ovarian it was 21 µM.
As to `CCCCCCCCCCCCNC(=O)N[C@H](C(=O)N[C@H]1/C=C/OCCNC(=O)/C=C/[C@H](C(C)C)NC1=O)C(C)C`, the GI50 in the assay with SK-MEL-28 melanoma is 3.28 µM; in the assay on HT29 colon, 0.599 µM; with SF-539 CNS it was 2.49 µM; in the assay on HCT-15 colon, over 66.3 µM; in the assay with CAKI-1 renal, over 100 µM; with HL-60(TB) leukemia it was 14.7 µM. For the same compound, the GI50 in the assay with KM12 colon was 4.72 µM; in the assay with U251 CNS it was 2.15 µM; in the assay with HS 578T breast, 3.22 µM; with IGROV1 ovarian, 2.12 µM. The TGI was 26.2 µM in the assay with SK-MEL-28 melanoma; 65.4 µM in the assay with HT29 colon; 18.4 µM in the assay with SF-539 CNS; over 100 µM with HCT-15 colon; over 100 µM in the assay on CAKI-1 renal; 55.7 µM in the assay on HL-60(TB) leukemia. For the same compound, the TGI is 30 µM in the assay with KM12 colon, over 55.2 µM in the assay with U251 CNS, 38.1 µM with HS 578T breast and over 100 µM with IGROV1 ovarian.
Consider `O=C1Nc2ccc(I)cc2/C1=C/c1cc(Br)c(O)c(Br)c1`, for which the GI50 with SK-MEL-28 melanoma is 14.4 µM and 9.72 µM; in the assay on HT29 colon, > 20.6 µM and 13.5 µM; in the assay on SF-539 CNS, > 20.2 µM and 14.1 µM; with HCT-15 colon, > 16 µM and 17.2 µM; with CAKI-1 renal it was > 15.9 µM and 14.9 µM; with HL-60(TB) leukemia, over 47.8 µM. Further, the GI50 in the assay with KM12 colon is > 15.9 µM and 12 µM; in the assay on U251 CNS, > 24.1 µM and 15.1 µM; in the assay on HS 578T breast, > 17.9 µM and 21.3 µM; in the assay with IGROV1 ovarian it was > 25 µM and 27.8 µM. Further, the TGI is over 72.2 µM in the assay on SK-MEL-28 melanoma; > 25 µM and 52.5 µM in the assay on HT29 colon; > 25 µM and 43.8 µM with SF-539 CNS; over 65.8 µM in the assay on HCT-15 colon; > 25 µM and 72 µM in the assay with CAKI-1 renal; over 100 µM with HL-60(TB) leukemia. The TGI with KM12 colon is > 25 µM and 28.7 µM; with U251 CNS it was > 25 µM and 36.3 µM; in the assay on HS 578T breast, over 80.4 µM; in the assay with IGROV1 ovarian, over 75.5 µM.
